Values joined by “and” are separate entries in the source; they are usually repeats but may differ in a detail not shown here. Equal entries are not always repeated.
Legend:
L. donovani strain LV82 = test: Murine VL model, parasite burdens in spleen, liver and bone marrow; type: in vivo, Leishmania donovani in BALB/c mice
Procedure: BALB/c mice were infected by intravenous injection (tail vein, no anesthetic) with 1–2 × 10^7 L. donovani strain LV82 amastigote parasites, obtained from the spleen of an infected hamster. Mice (n = 4/treatment) were treated with PBS pH 7.4 (controls) or APC12 (40 or 80 mg/kg) by intravenous injection (tail vein, no anesthetic, 0.2 mL) on days 7 and 8 post-infection or a single oral dose on day 7 post-infection. Milt was not given orally at a dose of 80 mg/kg because of its potential toxicity. On day 14, parasite burdens in the liver, spleen and bone marrow were determined. Results are from duplicate experiments, however, if a treatment had no significant effect then it […] in subsequent experiments.

visceral leishmaniasis = details: VL monotherapy, Nepal, 12 months post-treatment; cited from earlier work
[1] = two-component population PK model; listed as Milt; cited from earlier work
[2] = 40 mg/kg IV, assessed day 14, Experiment 2
[3] = 40 mg/kg oral, day 7 post-infection, assessed day 14, Experiment 1
[4] = 80 mg/kg oral, assessed day 14, Experiment 2

Structure (SMILES)	Mean Parasite Burden ± SD Bone Marrow (L. donovani strain LV82; [2])	Mean Parasite Burden ± SD Liver (L. donovani strain LV82; [2])	Mean Parasite Burden ± SD Spleen (L. donovani strain LV82; [2])	mean percentage suppression ± SD in parasite burden, Bone Marrow (L. donovani strain LV82; [2]) [%]	mean percentage suppression ± SD in parasite burden, Liver (L. donovani strain LV82; [2])	mean percentage suppression ± SD in parasite burden, Spleen (L. donovani strain LV82; [2])	Mean Parasite Burden ± SD Bone Marrow (L. donovani strain LV82; [3])	Mean Parasite Burden ± SD Liver (L. donovani strain LV82; [3])	Mean Parasite Burden ± SD Spleen (L. donovani strain LV82; [3])	mean percentage suppression ± SD in parasite burden, Bone Marrow (L. donovani strain LV82; [3]) [%]	mean percentage suppression ± SD in parasite burden, Liver (L. donovani strain LV82; [3]) [%]	mean percentage suppression ± SD in parasite burden, Spleen (L. donovani strain LV82; [3]) [%]	Mean Parasite Burden ± SD Bone Marrow (L. donovani strain LV82; [4])	Mean Parasite Burden ± SD Liver (L. donovani strain LV82; [4])	Mean Parasite Burden ± SD Spleen (L. donovani strain LV82; [4])	mean percentage suppression ± SD in parasite burden, Bone Marrow (L. donovani strain LV82; [4]) [%]	mean percentage suppression ± SD in parasite burden, Liver (L. donovani strain LV82; [4]) [%]	mean percentage suppression ± SD in parasite burden, Spleen (L. donovani strain LV82; [4]) [%]	relapse rate (visceral leishmaniasis) [%]	threshold concentration between non-saturable and saturable component [1]
CCCCCCCCCCCCOP(=O)([O-])OCC[N+](C)(C)C [APC12, dodecylphosphocholine]	555 ± 254	434 ± 197	112 ± 30	8 ± 14	60 ± 11% and 60 ± 19%	60 ± 19% and 60 ± 11%	210 ± 90	880 ± 276	275 ± 96	54 ± 34	36 ± 34	8 ± 18	607 ± 115	939 ± 170	257 ± 73	2 ± 4	27 ± 16	13 ± 27	–	–
CCCCCCCCCCCCCCCCOP(=O)([O-])OCC[N+](C)(C)C [APC16, hexadecylphosphocholine, reference compound]	–	–	–	–	–	–	197 ± 157	433 ± 46	73 ± 68	30 ± 35	40 ± 25	53 ± 31	–	–	–	–	–	–	20	50 μM and 20.4 μg/mL
